The values below are quoted from earlier work in patent US7795231B2, “Concentrated aqueous azalide formulations” (Insite Vision Incorporated, priority 2007, dated 2010).

Counter-ions that a name gives are not always drawn.

`CC[C@H]1OC(=O)[C@H](C)[C@@H](O[C@H]2C[C@@](C)(OC)[C@@H](O)[C@H](C)O2)[C@H](C)[C@@H](O[C@@H]2O[C@H](C)C[C@H](N(C)C)[C@H]2O)[C@](C)(O)C[C@@H](C)CN(C)[C@H](C)[C@@H](O)[C@]1(C)O` [azithromycin dihydrochloride]: the “water solubility (in words)” value is “good water solubility”.
